Source: PubChem BioAssay (NCI)
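Grown in 96-well plates, cells were treated for 48 hours with each compound at five concentrations. Insufficient inhibition: endpoint recorded as highest concentration tested. At the TGI there is no net growth.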

Tests used:
Assay in all cases: growth of human tumour cells (NCI), 48 h
[1] = tested on: BT-549 breast
[2] = tested on: SF-268 CNS
[3] = tested on: HOP-62 NSCLC
[4] = tested on: NCI-H226 lung
[5] = tested on: NCI-H522 lung
[6] = tested on: MALME-3M melanoma
[7] = tested on: SW-620 colon
[8] = tested on: RPMI-8226 leukemia
[9] = tested on: TK-10 renal
[10] = tested on: HCT-116 colon
[11] = tested on: SF-295 CNS
[12] = tested on: CAKI-1 renal
[13] = tested on: SF-539 CNS
[14] = tested on: SNB-19 CNS
[15] = tested on: UO-31 renal
[16] = tested on: A549 NSCLC
[17] = tested on: K-562 leukemia
[18] = tested on: PC-3 prostate

SMILES | TGI [1] | TGI [2] | TGI [3] | TGI [4] | TGI [5] | TGI [6] | TGI [7] | TGI [8] | TGI [9] | TGI [10] | TGI [11] | TGI [12] | TGI [13] | TGI [14] | TGI [15] | TGI [16] | TGI [17] | TGI [18]
N#CC(C(=O)c1ccccc1F)c1nc2cc(C(F)(F)F)ccc2s1 (configuration not stated) | 69.4 µM | > 100 µM | 63.1 µM | > 100 µM | 40.5 µM | 69.3 µM | 82.4 µM | 85 µM | > 100 µM | 41.9 µM | 73.4 µM | > 100 µM | 78.5 µM | – | – | – | – | –
COc1ccc(NS(=O)C2CCCCC2)cc1 (configuration not stated) | – | > 100 µM | > 100 µM | > 100 µM | > 100 µM | > 100 µM | > 100 µM | > 100 µM | > 100 µM | > 100 µM | > 100 µM | > 100 µM | > 100 µM | > 100 µM | > 100 µM | > 100 µM | > 100 µM | –
COC(=O)CSc1[nH]c2nc(C)nc(Nc3ccccc3)c2c1C#N | – | > 10 µM | > 10 µM | – | – | > 10 µM | > 10 µM | > 10 µM | > 10 µM | – | > 10 µM | > 10 µM | – | – | – | > 10 µM | > 10 µM | > 10 µM
CC(=O)OCCOCNC(=S)N/N=C(\C)c1ccco1 | – | > 100 µM | > 100 µM | > 100 µM | > 100 µM | > 100 µM | > 100 µM | – | > 100 µM | > 100 µM | > 100 µM | – | > 100 µM | > 100 µM | > 100 µM | > 100 µM | > 100 µM | –
CCOC(=O)Cc1csc(/N=C\c2c(O)c3ccccc3oc2=O)n1 | – | > 100 µM | 75.9 µM | 97.8 µM | 42.4 µM | 24.3 µM | > 100 µM | 51.6 µM | > 100 µM | > 100 µM | 68.2 µM | > 100 µM | 56.7 µM | > 100 µM | > 100 µM | > 100 µM | – | > 100 µM
CCC(=O)O[C@@H]1C2C(OC(C)=O)C34COC(C)([C@@H]3C3C(C[C@]3(C)OC(C)=O)[C@@H](OC(=O)c3ccccc3)C4=O)[C@H](OC(C)=O)[C@@]2(OC(C)=O)C[C@@H]1C (some centres not stated) | – | > 100 µM | > 100 µM | 41.4 µM | > 100 µM | > 100 µM | > 100 µM | > 100 µM | 46 µM | > 100 µM | 48.7 µM | > 100 µM | 47.5 µM | 45.8 µM | > 100 µM | > 100 µM | – | –
O=Cc1cc(O)c(O)c(O)c1-c1c(C=O)cc(O)c(O)c1O | – | > 100 µM | > 100 µM | > 100 µM | > 100 µM | > 100 µM | > 100 µM | > 100 µM | > 100 µM | > 100 µM | > 100 µM | > 100 µM | > 100 µM | > 100 µM | > 100 µM | > 100 µM | > 100 µM | –
CC(C)(C)[Si](C)(C)OCC1OC(n2ccc(=O)[nH]c2=O)C(O[Si](C)(C)C(C)(C)C)/C1=N/O (configuration not stated) | > 40.5 µM | – | 17 µM | 9.24 µM | – | – | > 37.8 µM | 7.75 µM | 20.9 µM | 7.11 µM | > 40.7 µM | 37.9 µM | 10.9 µM | 18.1 µM | 14.5 µM | 14 µM | 15.7 µM | 13.7 µM
CCOC(=O)/C(O)=C(\C=N\C(=S)Nc1ccc(Cl)c(Cl)c1)C(=O)OCC | – | > 100 µM | > 100 µM | > 100 µM | – | > 100 µM | > 100 µM | > 100 µM | > 100 µM | > 100 µM | > 100 µM | > 100 µM | > 100 µM | > 100 µM | > 100 µM | > 100 µM | – | > 100 µM
CCCCCCCCCCCCCC(=O)OCC1OC(OC)C(NC(=O)N(CCCl)N=O)C(O)C1O (configuration not stated) | – | 40.1 µM | 75.9 µM | 75.7 µM | – | 56.8 µM | 30.9 µM | 42.6 µM | 90.7 µM | 38.2 µM | – | > 100 µM | 12.9 µM | > 100 µM | 51.7 µM | 58.2 µM | 56.8 µM | –
CCOC(=O)[C@H]1Nc2ccc(O)cc2C2c3ccccc3CC21 (some centres not stated) | – | > 100 µM | > 100 µM | > 100 µM | > 100 µM | > 100 µM | > 100 µM | > 100 µM | > 100 µM | > 100 µM | – | > 100 µM | > 100 µM | > 100 µM | > 100 µM | > 100 µM | > 100 µM | –
CC1(c2cccc(C3CCC4(C=CC3=O)OCCO4)c2)OCCO1 (configuration not stated) | – | 36 µM | 47.9 µM | 49.2 µM | 3.53 µM | 10.9 µM | 8.07 µM | 28.9 µM | 20.3 µM | 13.2 µM | > 56.7 µM | 21.1 µM | 28.5 µM | > 45.9 µM | 12.7 µM | 34 µM | 25.1 µM | 31.1 µM
Cc1c(Cl)cccc1NC(=O)C(=O)C1C(=O)NC(=O)NC1=O | – | > 100 µM | > 100 µM | > 100 µM | > 100 µM | > 100 µM | > 100 µM | > 100 µM | > 100 µM | > 100 µM | > 100 µM | > 100 µM | > 100 µM | > 100 µM | > 100 µM | > 100 µM | > 100 µM | –
CCCCc1ccc(N2C(=O)c3cc(C)cnc3S2(=O)=O)cc1 | – | > 100 µM | > 100 µM | > 100 µM | > 100 µM | > 100 µM | > 100 µM | > 100 µM | – | > 100 µM | > 100 µM | – | – | > 100 µM | > 100 µM | > 100 µM | > 100 µM | > 100 µM
OC(Cn1cncn1)(Cn1cncn1)c1ccc(Cl)cc1Cl | – | > 100 µM | > 100 µM | > 100 µM | > 100 µM | > 100 µM | > 100 µM | > 100 µM | > 100 µM | > 100 µM | > 100 µM | > 100 µM | > 100 µM | – | > 100 µM | > 100 µM | > 100 µM | –
